Laboratory results as given in the NIST ThermoML archive (doi:10.1021/acs.jced.9b00442).
± gives the expanded uncertainty stated by the source.

details: 317.15 K; 100 kPa; Liquid; Vibrating tube method

Q: Which mass density does the source give for CC[N+](C)(C)CCCO.O=S(=O)([N-]S(=O)(=O)C(F)(F)F)C(F)(F)F here?
A: 1446.8 ± 1.2 kg/m3

Q: For CCCC[N+](C)(C)CC.O=S(=O)([N-]S(=O)(=O)C(F)(F)F)C(F)(F)F, which mass density is on record?
A: 1355 ± 1.1 kg/m3

same assay, conditions: 318.15 K; 100 kPa; Liquid; Concentric cylinders viscometry

Q: For CC[N+](C)(C)CCOC.O=S(=O)([N-]S(=O)(=O)C(F)(F)F)C(F)(F)F, which viscosity is on record?
A: 28.2 ± 1.1 mPa·s

Q: For CC[N+](C)(C)CCCO.O=S(=O)([N-]S(=O)(=O)C(F)(F)F)C(F)(F)F, which viscosity is on record?
A: 60.9 ± 2.5 mPa·s

Q: For CCCC[N+](C)(C)CC.O=S(=O)([N-]S(=O)(=O)C(F)(F)F)C(F)(F)F, which viscosity is on record?
A: 41.2 ± 1.7 mPa·s

same assay, conditions: 318.15 K; 100 kPa; Liquid; Frequency=0.0006 MHz; Alternating current cell with electrodes

Q: With CC[N+](C)(C)CCOC.O=S(=O)([N-]S(=O)(=O)C(F)(F)F)C(F)(F)F as the compound, how does the electrical conductivity read?
A: 0.57 ± 0.011 S/m

Q: Which electrical conductivity does the source give for CC[N+](C)(C)CCCO.O=S(=O)([N-]S(=O)(=O)C(F)(F)F)C(F)(F)F here?
A: 0.309 ± 0.006 S/m

Q: With CCCC[N+](C)(C)CC.O=S(=O)([N-]S(=O)(=O)C(F)(F)F)C(F)(F)F as the compound, how does the electrical conductivity read?
A: 0.401 ± 0.008 S/m

same assay, conditions: 318.15 K; 100 kPa; Liquid; Vibrating tube method

Q: For CC[N+](C)(C)CCOC.O=S(=O)([N-]S(=O)(=O)C(F)(F)F)C(F)(F)F, which mass density is on record?
A: 1412.3 ± 1.1 kg/m3

Q: Which mass density does the source give for CC[N+](C)(C)CCCO.O=S(=O)([N-]S(=O)(=O)C(F)(F)F)C(F)(F)F here?
A: 1446 ± 1.2 kg/m3

Q: For CCCC[N+](C)(C)CC.O=S(=O)([N-]S(=O)(=O)C(F)(F)F)C(F)(F)F, which mass density is on record?
A: 1354.1 ± 1.1 kg/m3

same assay, conditions: 319.15 K; 100 kPa; Liquid; Vibrating tube method

Q: For CC[N+](C)(C)CCOC.O=S(=O)([N-]S(=O)(=O)C(F)(F)F)C(F)(F)F, which mass density is on record?
A: 1411.4 ± 1.1 kg/m3

Q: For CC[N+](C)(C)CCCO.O=S(=O)([N-]S(=O)(=O)C(F)(F)F)C(F)(F)F, which mass density is on record?
A: 1445.1 ± 1.1 kg/m3

Q: For CCCC[N+](C)(C)CC.O=S(=O)([N-]S(=O)(=O)C(F)(F)F)C(F)(F)F, which mass density is on record?
A: 1353.2 ± 1.1 kg/m3

same assay, conditions: 320.15 K; 100 kPa; Liquid; Vibrating tube method

Q: With CC[N+](C)(C)CCOC.O=S(=O)([N-]S(=O)(=O)C(F)(F)F)C(F)(F)F as the compound, how does the mass density read?
A: 1410.4 ± 1.1 kg/m3

Q: Which mass density does the source give for CC[N+](C)(C)CCCO.O=S(=O)([N-]S(=O)(=O)C(F)(F)F)C(F)(F)F here?
A: 1444.2 ± 1.1 kg/m3

Q: With CCCC[N+](C)(C)CC.O=S(=O)([N-]S(=O)(=O)C(F)(F)F)C(F)(F)F as the compound, how does the mass density read?
A: 1352.3 ± 1.1 kg/m3

same assay, conditions: 321.15 K; 100 kPa; Liquid; Vibrating tube method

Q: With CC[N+](C)(C)CCOC.O=S(=O)([N-]S(=O)(=O)C(F)(F)F)C(F)(F)F as the compound, how does the mass density read?
A: 1409.5 ± 1.1 kg/m3

Q: With CC[N+](C)(C)CCCO.O=S(=O)([N-]S(=O)(=O)C(F)(F)F)C(F)(F)F as the compound, how does the mass density read?
A: 1443.4 ± 1.1 kg/m3

Q: With CCCC[N+](C)(C)CC.O=S(=O)([N-]S(=O)(=O)C(F)(F)F)C(F)(F)F as the compound, how does the mass density read?
A: 1351.5 ± 1.1 kg/m3

same assay, conditions: 322.15 K; 100 kPa; Liquid; Vibrating tube method

Q: With CC[N+](C)(C)CCOC.O=S(=O)([N-]S(=O)(=O)C(F)(F)F)C(F)(F)F as the compound, how does the mass density read?
A: 1408.6 ± 1.1 kg/m3

Q: With CC[N+](C)(C)CCCO.O=S(=O)([N-]S(=O)(=O)C(F)(F)F)C(F)(F)F as the compound, how does the mass density read?
A: 1442.5 ± 1.1 kg/m3

Q: Which mass density does the source give for CCCC[N+](C)(C)CC.O=S(=O)([N-]S(=O)(=O)C(F)(F)F)C(F)(F)F here?
A: 1350.6 ± 1.1 kg/m3

same assay, conditions: 323.15 K; 100 kPa; Liquid; Concentric cylinders viscometry

Q: For CC[N+](C)(C)CCOC.O=S(=O)([N-]S(=O)(=O)C(F)(F)F)C(F)(F)F, which viscosity is on record?
A: 24 ± 1 mPa·s

Q: For CC[N+](C)(C)CCCO.O=S(=O)([N-]S(=O)(=O)C(F)(F)F)C(F)(F)F, which viscosity is on record?
A: 49.5 ± 2 mPa·s

Q: With CCCC[N+](C)(C)CC.O=S(=O)([N-]S(=O)(=O)C(F)(F)F)C(F)(F)F as the compound, how does the viscosity read?
A: 34.2 ± 1.4 mPa·s

same assay, conditions: 323.15 K; 100 kPa; Liquid; Frequency=0.0006 MHz; Alternating current cell with electrodes

Q: For CC[N+](C)(C)CCOC.O=S(=O)([N-]S(=O)(=O)C(F)(F)F)C(F)(F)F, which electrical conductivity is on record?
A: 0.659 ± 0.013 S/m

Q: With CC[N+](C)(C)CCCO.O=S(=O)([N-]S(=O)(=O)C(F)(F)F)C(F)(F)F as the compound, how does the electrical conductivity read?
A: 0.371 ± 0.007 S/m

Q: Which electrical conductivity does the source give for CCCC[N+](C)(C)CC.O=S(=O)([N-]S(=O)(=O)C(F)(F)F)C(F)(F)F here?
A: 0.473 ± 0.009 S/m

same assay, conditions: 323.15 K; 100 kPa; Liquid; Vibrating tube method

Q: For CC[N+](C)(C)CCOC.O=S(=O)([N-]S(=O)(=O)C(F)(F)F)C(F)(F)F, which mass density is on record?
A: 1407.7 ± 1.1 kg/m3

Q: Which mass density does the source give for CC[N+](C)(C)CCCO.O=S(=O)([N-]S(=O)(=O)C(F)(F)F)C(F)(F)F here?
A: 1441.6 ± 1.1 kg/m3

Q: With CCCC[N+](C)(C)CC.O=S(=O)([N-]S(=O)(=O)C(F)(F)F)C(F)(F)F as the compound, how does the mass density read?
A: 1349.7 ± 1.1 kg/m3

same assay, conditions: 324.15 K; 100 kPa; Liquid; Vibrating tube method

Q: Which mass density does the source give for CC[N+](C)(C)CCOC.O=S(=O)([N-]S(=O)(=O)C(F)(F)F)C(F)(F)F here?
A: 1406.8 ± 1.1 kg/m3

Q: Which mass density does the source give for CC[N+](C)(C)CCCO.O=S(=O)([N-]S(=O)(=O)C(F)(F)F)C(F)(F)F here?
A: 1440.8 ± 1.1 kg/m3

Q: For CCCC[N+](C)(C)CC.O=S(=O)([N-]S(=O)(=O)C(F)(F)F)C(F)(F)F, which mass density is on record?
A: 1348.9 ± 1.1 kg/m3

same assay, conditions: 325.15 K; 100 kPa; Liquid; Vibrating tube method

Q: Which mass density does the source give for CC[N+](C)(C)CCOC.O=S(=O)([N-]S(=O)(=O)C(F)(F)F)C(F)(F)F here?
A: 1405.9 ± 1.1 kg/m3

Q: Which mass density does the source give for CC[N+](C)(C)CCCO.O=S(=O)([N-]S(=O)(=O)C(F)(F)F)C(F)(F)F here?
A: 1439.9 ± 1.1 kg/m3

Q: Which mass density does the source give for CCCC[N+](C)(C)CC.O=S(=O)([N-]S(=O)(=O)C(F)(F)F)C(F)(F)F here?
A: 1348 ± 1.1 kg/m3

same assay, conditions: 326.15 K; 100 kPa; Liquid; Vibrating tube method

Q: With CC[N+](C)(C)CCOC.O=S(=O)([N-]S(=O)(=O)C(F)(F)F)C(F)(F)F as the compound, how does the mass density read?
A: 1404.9 ± 1.1 kg/m3

Q: With CC[N+](C)(C)CCCO.O=S(=O)([N-]S(=O)(=O)C(F)(F)F)C(F)(F)F as the compound, how does the mass density read?
A: 1439 ± 1.1 kg/m3

Q: With CCCC[N+](C)(C)CC.O=S(=O)([N-]S(=O)(=O)C(F)(F)F)C(F)(F)F as the compound, how does the mass density read?
A: 1347.2 ± 1.1 kg/m3

same assay, conditions: 327.15 K; 100 kPa; Liquid; Vibrating tube method

Q: For CC[N+](C)(C)CCOC.O=S(=O)([N-]S(=O)(=O)C(F)(F)F)C(F)(F)F, which mass density is on record?
A: 1404 ± 1.1 kg/m3

Q: Which mass density does the source give for CC[N+](C)(C)CCCO.O=S(=O)([N-]S(=O)(=O)C(F)(F)F)C(F)(F)F here?
A: 1438.2 ± 1.1 kg/m3

Q: With CCCC[N+](C)(C)CC.O=S(=O)([N-]S(=O)(=O)C(F)(F)F)C(F)(F)F as the compound, how does the mass density read?
A: 1346.3 ± 1.1 kg/m3
